Assay results: PMC9921329, “Semisynthetic Sesquiterpene Lactones Generated by the Sensibility of Glaucolide B to Lewis and Brønsted–Lowry Acids and Bases: Cytotoxicity and Anti-Inflammatory Activities” (Molecules, 2023)

Assays:
[1] = tested on: NCI-H460 (human lung carcinoma cell line); experiment: MTT cell viability, human lung carcinoma cells; assay type: cell-based; settings: 24 h incubation, mean ± SD (n = 3), test concentration not given
Method: (§1) To evaluate the potential antitumoral activity of the compounds, the MTT [3-(4,5-dimethyl-2-thiazolyl)-2,5-diphenyl-2H-tetrazolium bromide] method was used to determine the cell viability of SK-MEL-28 (human melanoma cell line), NCI-H460 (human lung carcinoma cell line), SF295 (human glioblastoma cell line), and HUVEC (human umbilical vein endothelial cells) line. Cell viability analysis of murine macrophage J774A.1 was conducted using a resazurin-based cytotoxicity assay (Alamar blue®). All cell lines were acquired from the BCRJ (Rio de Janeiro Cell Bank, Federal University of Rio de Janeiro, Brazil). The cell lines were cultivated in RPMI-1640 or DMEM medium, supplemented with 1.5 g/L of sodium bicarbonate, 10 mM of HEPES, pH 7.4, 100 U/mL of penicillin G, 100 μg/mL of streptomycin, and 10% fetal calf serum at 37 °C in a humidified atmosphere consisting of 95% air and 5% CO2 cultures, and greater than 95% of viable cells in trypan blue exclusion tests were used for the experiments. Therefore, cells were seeded (1 × 10^4/well) in 96-well plates and incubated with increasing concentrations of the compounds for 24 h. After incubation, the former culture medium was replaced with a fresh culture medium with 5 mg/mL of MTT and with 0.1 mg/mL of resazurin for 2 h at 37 °C. MTT formazan crystals were dissolved in DMSO, and the absorbance of each well was measured at 540 nm, using a micro-well system reader. For the control group of each cell line, cells were incubated without the compounds and considered to have 100% cell viability. MTT formazan crystals were dissolved in DMSO, and absorbance was measured at 540 nm using a microplate reader (ELX800, Biotek, Winooski, VT, USA). The half-maximal cytotoxic concentration (CC50) values were calculated from a Hill concentration–response curve. Results were expressed as the mean ± SD of three experiments. The selectivity index (SI) was calculated via the ratio between the CC50 of non-tumoral cells and the tumoral cell lines. […] For the resazurin assay, fluorescence was measured at 1 h intervals using a plate multi-reader (Infinite Multireader m200 Tecan) at 530–590 nm. Nonlinear regression of each fraction versus percentage cell viability was performed to obtain a 10% toxicity concentration (a concentration causing 90% cell viability) using GraphPad Prism 8.0 software (GraphPad Software, San Diego, CA, USA).

[2] = tested on: SF295 (human glioblastoma cell line); experiment: MTT cell viability, human glioblastoma cells; assay type: cell-based; settings: 24 h incubation, mean ± SD (n = 3), test concentration not given
Method: as §1

[3] = tested on: SK-MEL-28 (human melanoma cell line); experiment: MTT cell viability / cytotoxicity, human melanoma cells; assay type: cell-based; settings: for Viability (%) SK-MEL-28 / CC50: MTT; for Viability (%) SK-MEL-28: 24 h incubation, mean ± SD (n = 3), test concentration not given; for CC50: Homo sapiens, SK-MEL-28, 24 h, half-maximal cytotoxic concentration; for SI (selectivity index) SK-MEL-28: ratio of CC50 of non-tumoral HUVEC cells to CC50 of SK-MEL-28
Method: as §1

[4] = MTT cytotoxicity, non-tumoral endothelial cells; assay type: cell-based, human; settings: human, HUVEC cells (non-tumoral), pH 7.4
Method: as §1

[5] = tested on: LPS-stimulated M1 macrophages J774A.1 (IL-6); experiment: Interleukin-6 release from LPS-stimulated macrophages (ELISA); assay type: cell-based, murine
Method: (§2) The in vitro anti-inflammatory activity was performed in murine macrophage J774A.1 and analyzed after modifications to the protocol previously described by […] and coworkers. The evaluation consisted of measuring the production of nitrite through an indicator of NO synthesis in supernatants from LPS-activated macrophages. A number of 1 × 10^5 cells/well were seeded in 96-well plates for 24 h, after which time the culture medium was changed, and the CC10 concentration (Figure S70, found in the Supplementary Materials) of each compound was added to the medium containing DMEM supplemented with 10% FBS. After 15 min, macrophages were stimulated with 10 μg/mL of LPS and incubated for 24 h to obtain a proinflammatory M1-phenotype. Subsequently, supernatants were collected and total nitrite nitrate (NOx) was measured by adding 100 μL of Griess' reagent (1% sulfanilamide and 0.1% N-(1-naphthyl) ethylenediamine in 0.5% phosphoric acid). Absorbance was determined with a microplate reader (ELX800, BioTek, Winooski, VT, USA) at 540 nm. In addition, the proinflammatory cytokine IL-6 was determined using an enzyme-linked immunosorbent assay (ELISA) (BD Bioscience, San Jose, CA, USA) according to the manufacturer's instructions.

[6] = tested on: LPS-stimulated M1 macrophages J774A.1 (NOx); experiment: Total nitrite nitrate (NOx) release from LPS-stimulated macrophages (Griess); assay type: cell-based, murine
Method: as §2

[7] = tested on: murine macrophage J774A.1; experiment: Resazurin-based cytotoxicity assay (Alamar blue) in macrophages; assay type: cell-based; settings: J774A.1, Figure S70
Method: To evaluate the potential antitumoral activity of the compounds, the MTT [3-(4,5-dimethyl-2-thiazolyl)-2,5-diphenyl-2H-tetrazolium bromide] method was used to determine the cell viability of SK-MEL-28 (human melanoma cell line), NCI-H460 (human lung carcinoma cell line), SF295 (human glioblastoma cell line), and HUVEC (human umbilical vein endothelial cells) line. Cell viability analysis of murine macrophage J774A.1 was conducted using a resazurin-based cytotoxicity assay (Alamar blue®). All cell lines were acquired from the BCRJ (Rio de Janeiro Cell Bank, Federal University of Rio de Janeiro, Brazil). […] MTT formazan crystals were dissolved in DMSO, and the absorbance of each well was measured at 540 nm, using a micro-well system reader. […] MTT formazan crystals were dissolved in DMSO, and absorbance was measured at 540 nm using a microplate reader (ELX800, Biotek, Winooski, VT, USA). The half-maximal cytotoxic concentration (CC50) values were calculated from a Hill concentration–response curve. Results were expressed as the mean ± SD of three experiments. The selectivity index (SI) was calculated via the ratio between the CC50 of non-tumoral cells and the tumoral cell lines. […] For the resazurin assay, fluorescence was measured at 1 h intervals using a plate multi-reader (Infinite Multireader m200 Tecan) at 530–590 nm. […]

[8] = compound at CC10, pre-treatment 15 min, LPS 10 μg/mL, 24 h

Row | SMILES | Viability (%) NCI-H460 [1] [%] | Viability (%) SF295 [2] [%] | Viability (%) SK-MEL-28 [3] [%] | CC50 at 24 h [4] [µM] | CC50 [3] [µM] | SI (selectivity index) SK-MEL-28 [3] | Anti-inflammatory activity, IL-6 release (in words) ([5]; compound at CC10, LPS 10 μg/mL) | Reduction of IL-6 release vs control M1 cells (LPS+ group) [5, 8] [%] | Anti-inflammatory activity, NOx release (in words) ([6]; compound at CC10, LPS 10 μg/mL) | Reduction of NOx release vs control M1 cells (LPS+ group) [6, 8] [%] | Cytotoxicity against macrophages (in words) [7]
1 | C=C1C(=O)OC2C(OC(C)=O)C3(C)CC4C12C(OC(C)=O)CC1(C)OC(C)(C)OC41O3 (stereo not drawn) [Compound 6, 5,8-diacetoxy-2-epi-vernomargolide-1,4-cycloacetal-1,10-acetonide] | 90.4 ± 1.5 | 90.4 ± 3.7 | 85.9 ± 4.0 |  |  |  |  |  |  |  | 
2 | COCC1=C2C(OC(C)=O)CC(C)(OC(C)=O)C3(O)CCC(C)(O)C(OC(C)=O)C23OC1=O (centres unmarked) [Compound 2, 13-O-methylvernojalcanolide-8-O-acetate] | 91.8 ± 3.6 | 86.8 ± 6.3 | 87.1 ± 2.6 |  |  |  |  |  |  |  | 
3 | C=C1C(=O)OC2C(OC(C)=O)C3(C)CC4C12C(OC(C)=O)CC(C)(OC(C)=O)C4(O)O3 (stereo not drawn) [Compound 4, 5,8-diacetoxy-2-epi-vernomargolide-1,4-cyclosemiacetal] | 100.2 ± 2.7 | 94.7 ± 1.1 | 96.4 ± 6.9 |  |  |  |  |  |  |  | 
4 | C=C1C(=O)OC2C(OC(C)=O)C3(C)CCC(OC(C)=O)(O3)C3(C)CC(OC(C)=O)C12O3 (centres unmarked) [Compound 8a, 1,5,8-triacetoxy-1(4),7(10)-diepoxy-germacr-11(13)-en-6(12)-o1ide] | 53.1 ± 0.0 | 67.3 ± 4.0 | 5.3 ± 0.3 | 9 | 3.1 | 3.0 |  |  |  |  | 
5 | C=C1C(=O)OC2(O)C(=O)C3(C)CCC(=O)C(C)(OC(C)=O)CC(OC(C)=O)C12O3 (centres unmarked) [Compound 7c.1, 8,10-diacetoxy-4(7)-epoxy-6-hydroxy-1,5-oxo-germacr-11(13)-en-6(12)-olide] | 88.7 ± 6.7 | 87.0 ± 4.7 | 77.3 ± 0.3 |  |  |  | strongly reduced | ~77 | strongly reduced | ~77 | less cytotoxicity against macrophages
6 | CC(=O)OCC1=C2C(OC(C)=O)CC(C)(OC(C)=O)C(=O)CCC3(C)OC3C2OC1=O (centres unmarked) [Compound 1, glaucolide B] | 85.1 ± 4.6 | 88.0 ± 4.8 | 82.6 ± 4.1 |  |  |  |  |  |  |  | 
7 | C=C1C(=O)OC2C(O)C(C)(O)CC3C(=O)C(C)(O)CC(OC(C)=O)C132 (centres unmarked) [Compound 9, 8-acetoxy-vernomargolide] | 84.9 ± 0.4 | 85.2 ± 2.8 | 74.5 ± 4.9 |  |  |  |  |  |  |  | 
8 | CC(=O)OCC1=C2C(OC(C)=O)CC(C)(OC(C)=O)C3(O)CCC(C)(O)C(OC(C)=O)C23OC1=O (centres unmarked) [Compound 3, 1,4-dihydroxy-5,8,10,13-tetraacetoxycadin-7(11)-en-6,12-olide] | 88.4 ± 3.4 | 86.1 ± 2.3 | 91.1 ± 1.7 |  |  |  |  |  |  |  | 
9 | C=C1C(=O)OC2C(OC(C)=O)C3(C)CC4C12C(OC(C)=O)CC(C)(O)C4(O)O3 (stereo not drawn) [Compound 5, 5,8,10-triacetoxy-2-epi-vernomargolide-1,4-cyclosemiacetal] | 100.3 ± 5.5 | 95.6 ± 3.9 | 95.3 ± 4.1 |  |  |  |  |  |  |  | 
10 | CC(=O)OCC1=C2C(OC(C)=O)CC(C)(OC(C)=O)C3(O)CCC(C)(O3)C(O)C2OC1=O (centres unmarked) [Compound 7, 5-hydroxy-hirsutinolide] | 89.1 ± 3.9 | 86.7 ± 3.8 | 76.2 ± 7.5 |  |  |  |  |  |  |  | 
11 | C=C1C(=O)OC2C(O)C3(C)CCC(OC(C)=O)(O3)C3(C)CC(OC(C)=O)C12O3 (centres unmarked) [Compound 8, 1,8-diacetoxy-1(4),7(10)-diepoxy-5-hydroxygermacr-11(13)-en-6(12)-olide] | 87.3 ± 1.6 | 82.0 ± 4.7 | 66.9 ± 3.5 |  |  |  |  |  |  |  | 
12 | CC(=O)OCC1=C2/C(=C\C3(C)CC=C(O3)C(C)(OC(C)=O)CC2OC(C)=O)OC1=O (centres unmarked) [Compound 7b, 8,10,13-triacetoxy-1(4)-epoxy-germacra-1(2),5(6),7(11)-trien-6(12)-olide] | 73.2 ± 1.0 | 83.3 ± 1.2 | 16.0 ± 2.6 | 27.8 | 11.2 | 2.5 |  |  |  |  | 
13 | C=C(C)C(=O)OC1CC(C)(O)C2(O)CCC(C)(/C=C3/OC(=O)C(COC(C)=O)=C31)O2 (centres unmarked) [Compound 10, piptocarphin A, reference compound] | 104.8 ± 1.6 | 93.2 ± 3.2 | 23.1 ± 4.2 | 12.5 | 6.7 | 1.9 |  |  |  |  | 
14 | CC(=O)OCC1=C2C(OC(C)=O)CC(C)(OC(C)=O)C3(O)CCC(C)(O3)C(=O)C2(O)OC1=O (centres unmarked) [Compound 7c] | 85.7 ± 1.6 | 88.6 ± 4.8 | 79.2 ± 6.4 |  |  |  |  |  |  |  | 
15 | CC(=O)OCC1=C2/C(=C\C3(C)CCC(O)(O3)C(C)(O)CC2OC(C)=O)OC1=O (centres unmarked) [Compound 12, diacetylpiptocarphol, reference compound] | 63.8 ± 6.9 | 80.4 ± 3.3 | 9.0 ± 0.5 | 12.6 | 3.8 | 3.3 |  |  |  |  | 
16 | C=C1C(=O)OC2C(OC(C)=O)C(C)(O)CC3C(=O)C(C)(O)CC(OC(C)=O)C132 (centres unmarked) [Compound 9a, 5,8-diacetoxy-vernomargolide] | 84.8 ± 0.9 | 85.9 ± 5.0 | 73.8 ± 3.1 |  |  |  |  |  |  |  | 
